Results published in PubChem BioAssay AID1863 (Southern Research Specialized Biocontainment Screening …, 2009).

What follows are molecules tested on S. Typhimurium PhoP-regulated promoter GFP reporter, 4 h (assay: PhoP-dependent GFP reporter repression – Salmonella Typhimurium, primary screen (AID 1863)).
Molecule `CCn1cc(C(=O)NCC(C)C)c(=O)c2cc(F)c(N3CCN(C)CC3)cc21` has an IC50 of 38.2 µM.
`CCCCCCCCCCCCCCCC[N+](C)(C)CCN(Cc1ccc(OC)cc1)c1ncccn1` was tested, and the IC50 was 30.2 µM.
In the case of `CO/N=C(/C(=O)N[C@@H]1C(=O)N2C(C(=O)O)=CCS[C@H]12)c1cnc(N)s1`, the IC50 is reported as 16 µM.
`CCn1cc(C(=O)O)c(=O)c2cc(F)c(N3CCN(C(=S)NC(=O)c4ccc(F)c(F)c4)CC3)cc21` gave an IC50 of 46.6 µM.
Molecule `C[C@H]1c2cccc(O)c2C(O)=C2C(=O)[C@]3(O)C(O)=C(C(N)=O)C(=O)[C@@H](N(C)C)[C@@H]3[C@@H](O)[C@@H]21` has an IC50 of 6.25 µM.
`O=[N+]([O-])c1ccc(N/N=C/c2ccc[nH]2)cc1` gave an IC50 of 75 µM.
`Nc1cc(Cl)c2nonc2c1[N+](=O)[O-]` was tested, and the IC50 was 57.6 µM.
In the case of `CCC(C)(C)c1ccc(OCCCC[n+]2ccc(C)cc2)c(C(C)(C)CC)c1`, the IC50 is reported as 66.9 µM.
For `CN(C)S(=O)(=O)c1cccc(NC(=S)N/N=C/c2cc(Br)ccc2O)c1`, the IC50 was 69.3 µM.
`CCCCCCCCCC[N+](C)(C)CC/C=C1/c2ccccc2Sc2ccc(Cl)cc21` gave an IC50 of 18.5 µM.
In the case of `CC[n+]1c(/C=C/N(C)c2ccccc2)n(-c2ccccc2)c2ccc(-c3nc4ccccc4s3)cc21`, the IC50 is reported as 26.5 µM.
Work on `CCn1cc(C(=O)O)c(=O)c2cnc(N3CCNCC3)nc21` yielded an IC50 of 29.8 µM.
`CNC[C@H](Cc1ccccc1)NC[C@@H](Cc1cccc2ccccc12)NCCc1ccc(C)cc1` was tested, and the IC50 was 27.1 µM.
With `O=C1c2ccccc2NC(c2ccc(-c3cccc(Cl)c3)o2)N1O` (stereo not given) the IC50 was 114 µM.
Molecule `CCCCCCCCCCOC(=O)Cn1c(COc2cccc(C)c2)[n+](C)c2ccccc21` has an IC50 of 18.7 µM.
`Cc1[nH]n(-c2ccccc2)c(=O)c1/C=N/Nc1nncc(-c2ccccc2)n1` gave an IC50 of 29.5 µM.
`COc1c(N2CCN[C@H](C)C2)c(F)cc2c(=O)c(C(=O)O)cn(C3CC3)c12` was tested, and the IC50 was 0.36 µM.
`O=C(N/N=C/c1sc2ccccc2c1O)c1cccc2ccccc12` gave an IC50 of 42.4 µM.
`CCOC(=O)N1CCN(C(c2cccnc2)c2ccc3cccnc3c2O)CC1` (stereo not given) was tested, and the IC50 was 122 µM.
With `CCCCCCOC(=O)C[N+](C)(C)CCOC1CC2CCC1(C)C2(C)C` (stereo not given) the IC50 was 40.1 µM.
`CCCCCCNC(=O)c1cn(CC)c2cc(N3CCN(C)CC3)c(F)cc2c1=O` was tested, and the IC50 was 23.2 µM.
For `O=C(C[n+]1cc(-c2ccc(Cl)cc2)n2c1CCC2)Nc1nc(-c2ccc(F)cc2)cs1`, the IC50 was 73.7 µM.
`O=C(N[C@H](CO)[C@H](O)c1ccc([N+](=O)[O-])cc1)C(Cl)Cl` showed an IC50 of 9.52 µM.
For `CCCCCCCCCC[n+]1cccc2c3ccccc3ccc21`, the IC50 was 23.1 µM.
For `Oc1ccc(CNc2ccccc2F)c2cccnc12`, the IC50 was 96.5 µM.
`CN(C)[C@@H]1C(=O)C(C(N)=O)=C(O)[C@@]2(O)C(=O)C3=C(O)c4c(O)cccc4[C@@](C)(O)C3[C@H](O)C12` (stereo not given in full) was tested, and the IC50 was 1.74 µM.
For `COc1cnc(-c2ccccn2)[nH]c1=O`, the IC50 was 55.2 µM.
`CCCCCCCCCCOC(=O)Cn1c(COc2ccccc2)[n+](C)c2ccccc21` showed an IC50 of 17.8 µM.
With `Fc1ccc(CCNCc2ccc(Cl)c(Cl)c2)cc1` the IC50 was 84.3 µM.
`Cc1nc(N)nc(N)c1/C=C/C(C)(C)c1ccc(Cl)cc1` was tested, and the IC50 was 18.5 µM.
With `CN1CCN(CCCN2c3ccccc3Sc3ccc(Cl)cc32)CC1` the IC50 was 71.2 µM.
`NC(N)=NN=C1CCCCCCCCCCC1` showed an IC50 of 100 µM.
`CCCCNC(=O)c1cn(CC)c2cc(N3CCN(C)CC3)c(F)cc2c1=O` was tested, and the IC50 was 23.7 µM.
`CCCCC(CC)CN=C(N)NC(N)=NCCCCCCN=C(N)NC(N)=NCC(CC)CCCC` (stereo not given) showed an IC50 of 7.11 µM.
Molecule `CCCCCCCCCCCCCCCC[n+]1cccc2ccccc21` has an IC50 of 24.9 µM.
Work on `Nc1c(Cl)ncnc1N/N=C/c1ccccn1` yielded an IC50 of 30.8 µM.
Molecule `O=CN/N=C/c1c(O)ccc2ccccc12` has an IC50 of 71.9 µM.
For `Cc1nnc(N/N=C/c2ccccn2)[nH]c1=O`, the IC50 was 42 µM.
Work on `CCn1cc(C(=O)O)c(=O)c2cc(F)c(N3CCNCC3)cc21` yielded an IC50 of 0.51 µM.
`C[C@H]1COc2c(N3CCN(C)CC3)c(F)cc3c(=O)c(C(=O)O)cn1c23` gave an IC50 of less than 0.23 µM.
`CCCCCCCCCCOC(=O)Cn1c(COc2ccc(Cl)cc2)[n+](C)c2ccccc21` showed an IC50 of 19.5 µM.
`C[CH2][Hg][S]c1ccccc1C(=O)O` gave an IC50 of 136 µM.
In the case of `O=C(Nc1nc(-c2ccccn2)cs1)c1ccc(Cl)s1`, the IC50 is reported as 69.3 µM.
Molecule `O=C(/C=C/c1ccccc1Cl)c1ccccc(=O)c1O` has an IC50 of 40.1 µM.
In the case of `CC(=O)c1c(C)n([O-])c2cc(F)c(F)cc2[n+]1=O`, the IC50 is reported as 130 µM.
For `CCCCCCCCCCOC(=O)Cn1c(COc2ccc(C)cc2)[n+](C)c2ccccc21`, the IC50 was 18.8 µM.
Work on `CCNC(=S)NNC(=O)c1ccccn1` yielded an IC50 of 62.6 µM.
Molecule `CC(=O)NC(c1cccc([N+](=O)[O-])c1)c1ccc2cccnc2c1O` (stereo not given) has an IC50 of 105 µM.
With `CC(C)CCNCC(O)CON=C1c2ccccc2-c2ccccc21` (stereo not given) the IC50 was 123 µM.
Molecule `O=C(N/N=C/c1cc([N+](=O)[O-])ccc1O)C1CC1` has an IC50 of 66.5 µM.
Molecule `Cc1nc(N)c(Cc2ccc(Cl)cc2Cl)c(N)n1` has an IC50 of 105 µM.
In the case of `O=C(c1cccs1)c1no[n+]([O-])c1C(=O)c1cccs1`, the IC50 is reported as 33.7 µM.
`O=[N+]([O-])c1cc(F)c2cccnc2c1O` gave an IC50 of 12 µM.
`Cc1cc(C(=O)N/N=C/c2cc(Br)cc([N+](=O)[O-])c2O)c2ccccc2n1` was tested, and the IC50 was 118 µM.
Work on `Cc1ccc(Nc2c3c(nc4ccccc24)CCC3)cc1` yielded an IC50 of 137 µM.
